# Experimental data as given in US20250051338A1, “TYK2 DEGRADERS AND USES THEREOF” (Kymera Therapeutics, Inc., priority 2021, published 2025).
# Tests used:
# Assay type in all cases: cell-based
# TYK2 [1] = target: T1, TYK2 (Homo sapiens, UniProt P29597); assay: TYK2 degradation MSD assay in human PBMC cells; design: endogenous in cells; host or cells: human PBMC; details: 4 to 24 hours incubation, read-out: TYK2 MSD DC50 rating in human PBMC
# Procedure: (§1) Example 3. TYK2 Degradation MSD Assay in EBV-B, OCI-LY10, and Human PBMC Cells
# (§2) Degradation of TYK2 in cells was quantitatively measured using Meso Scale Discovery (MSD) technology. EBV-B, OCI-LY10 or human PBMC cells were seeded in 96-well plates with a density of 0.4 million cells per well in 100 μl fresh media. Compounds were then added to the assay plates with a final top concentration of 1 to 10 μM in a 1:3 dilution series with total of 9 doses. The assay plates were then incubated for 4 to 24 hours at 37° C. under 5% CO2. The assay plates were then centrifuged for 5 minutes, and the cell pellets were treated with 100 μl/well RIPA lysis buffer (Boston Bioproducts, BP-115D) with protease and phosphatase inhibitors (Roche, 05892791001 and 04906837001). To prepare MSD assay plates (MSD, L15XA), the plates were coated with the capture antibody (Santa Cruz Biotechnology, SC-5271) in PBS, at 40 μl/well. The plates were then incubated overnight at 4° C., washed 3 times with 150 μl/well TBST buffer (Cell Signaling Technology, 9997S) and blocked with 150 μl/well blocking buffer (MSD, R93BA-4). Cell lysates were then added to MSD assay plates and the plates were incubated at room temperature for 1 hour. The plates were then washed 3 times with 150 μl/well TBST buffer and 25 μl/well primary detection antibody (Cell Signaling Technology, #9312). The assay plates were then incubated at room temperature for 1 hour, washed 3 times with 150 μl/well TBST buffer, and 25 μl/well secondary detection antibody, SULFO-TAG anti-rabbit antibody (MSD, R32AB-1) were added. The assay plates were then incubated at room temperature for 1 hour, washed 3 times with 150 μl/well TBST buffer, and 150 μl/well MSD reading buffer (MSD, R92TC-2) were added. The plates were then analyzed by an MSD reader. The data was analyzed by GraphPad Prism and the dose dependent TYK2 degradation was fit using the four-parameter inhibitor vs. response nonlinear regression. The DC50 data were measured and categorized into different levels in Table H. The compound with DC50 less than or equal to 1 nM is marked as A, with DC50 more than 1 nM and less than or equal to 10 nM is marked as B, with DC50 more than 10 nM and less than or equal to 100 nM is marked as C, and with DC50 more than 100 nM or not available is marked as D.
# TYK2 [2] = target: T1, TYK2; assay: TYK2 degradation MSD assay in EBV-B cells; design: endogenous in cells; host or cells: EBV-B cells; details: 4 to 24 hours incubation, read-out: TYK2 MSD DC50 rating in EBV-B
# Procedure: as §1, §2
# TYK2 [3] = target: T1, TYK2; assay: TYK2 degradation MSD assay in OCI-LY10 cells; design: endogenous in cells; host or cells: EBV-B cells; details: 4 to 24 hours incubation, read-out: TYK2 MSD DC50 rating in OCI-LY10
# Procedure: as §1, §2
# T1 sequence (P29597 whole entry): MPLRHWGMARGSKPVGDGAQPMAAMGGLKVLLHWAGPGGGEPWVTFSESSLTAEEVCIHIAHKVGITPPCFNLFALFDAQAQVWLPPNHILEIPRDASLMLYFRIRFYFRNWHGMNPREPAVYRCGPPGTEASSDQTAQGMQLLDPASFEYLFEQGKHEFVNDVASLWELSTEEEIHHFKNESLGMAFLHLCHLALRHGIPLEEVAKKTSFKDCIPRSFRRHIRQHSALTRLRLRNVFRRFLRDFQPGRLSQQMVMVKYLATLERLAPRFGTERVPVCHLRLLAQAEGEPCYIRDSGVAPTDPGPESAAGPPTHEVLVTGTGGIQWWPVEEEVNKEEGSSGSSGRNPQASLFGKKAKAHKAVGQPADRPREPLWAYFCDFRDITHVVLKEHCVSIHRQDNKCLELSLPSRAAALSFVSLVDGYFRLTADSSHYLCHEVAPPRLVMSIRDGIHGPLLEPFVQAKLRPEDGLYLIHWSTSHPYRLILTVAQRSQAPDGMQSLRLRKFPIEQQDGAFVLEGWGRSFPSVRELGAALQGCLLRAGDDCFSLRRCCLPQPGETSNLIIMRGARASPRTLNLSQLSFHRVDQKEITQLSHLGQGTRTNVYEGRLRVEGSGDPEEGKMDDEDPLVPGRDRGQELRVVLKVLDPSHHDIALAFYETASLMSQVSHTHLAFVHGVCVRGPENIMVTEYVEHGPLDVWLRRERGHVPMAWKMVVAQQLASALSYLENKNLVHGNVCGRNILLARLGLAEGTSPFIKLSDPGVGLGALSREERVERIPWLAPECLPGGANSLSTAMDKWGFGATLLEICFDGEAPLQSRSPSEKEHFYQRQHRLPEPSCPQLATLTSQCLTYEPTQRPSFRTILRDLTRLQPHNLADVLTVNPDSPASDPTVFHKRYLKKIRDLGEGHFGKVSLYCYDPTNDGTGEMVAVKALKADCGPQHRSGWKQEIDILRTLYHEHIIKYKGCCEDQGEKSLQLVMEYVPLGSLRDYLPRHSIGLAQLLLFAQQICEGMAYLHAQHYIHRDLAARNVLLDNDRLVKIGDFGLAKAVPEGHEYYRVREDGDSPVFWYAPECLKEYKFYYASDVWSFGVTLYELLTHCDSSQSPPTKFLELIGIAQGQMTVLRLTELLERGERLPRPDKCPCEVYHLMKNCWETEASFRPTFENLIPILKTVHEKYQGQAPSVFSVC
SMILES,DC50 (TYK2 [1]) [nM],DC50 (TYK2 [2]) [nM],DC50 (TYK2 [3]) [nM]
CCNC(=O)c1cnc(Nc2ccc(C(=O)N(C)C3CCN(c4cccc5c4n(C)c(=O)n5C4CCC(=O)NC4=O)CC3)cn2)cc1Nc1cccc(-c2ncc(F)cn2)c1OC (centres unmarked) [Example K169],> 100,1 to 10,> 100
Cn1c(=O)n(C2CCC(=O)NC2=O)c2ccc(CCCCCCCCCCNc3cc(Nc4cccn(-c5ccccn5)c4=O)nn4c(C(=O)N[C@@H]5C[C@@H]5F)cnc34)cc21 (some centres unmarked) [Example K210],> 100,> 100,> 100
CNC(=O)c1cnc(NC(=O)NCCCCc2cccc3c2n(C)c(=O)n3C2CCC(=O)NC2=O)cc1Nc1cccc(-c2ncc(F)cn2)c1OC (centres unmarked) [Example K105],> 100,> 100,> 100
CNC(=O)c1cnc(Nc2ccc(C(=O)NCCCCCCc3ccc4c(c3)n(C)c(=O)n4C3CCC(=O)NC3=O)cn2)cc1Nc1cccc(-c2ncc(F)cn2)c1OC (centres unmarked) [Example K110],< 1,> 100,> 100
CNc1cc(Nc2cccn(-c3ccc(C(=O)NC4CCC(C(=O)N5CCC6(CN(CC#Cc7ccc8c(c7)n(C)c(=O)n8C7CCC(=O)NC7=O)C6)C5)CC4)cn3)c2=O)nn2c(C(=O)N[C@@H]3C[C@@H]3F)cnc12 (some centres unmarked) [Example K384],> 100,> 100,> 100
Cn1c(=O)n(C2CCC(=O)NC2=O)c2ccc(N3CCN(Cc4ccc(-c5cccc(Nc6ccc7ncc(C(=O)NC8CC8)n7n6)c5)nc4)CC3)cc21 (centres unmarked) [Example K406],> 100,> 100,> 100
CNc1cc(Nc2cccn(-c3cc(C(=O)NCCOCCOCCOCCOCCOCCOCCc4cccc5c4n(C)c(=O)n5C4CCC(=O)NC4=O)ccn3)c2=O)nn2c(C(=O)N[C@@H]3C[C@@H]3F)cnc12 (some centres unmarked) [Example K246],–,> 100,–
CNc1cc(Nc2cccc(C(=O)NCCCCc3ccc4c(c3)n(C)c(=O)n4C3CCC(=O)NC3=O)c2)nn2c(C(=O)N[C@@H]3C[C@@H]3F)cnc12 (some centres unmarked) [Example K368],–,> 100,–

# More lines, now with the values ahead:
DC50 (TYK2 [1]) [nM],DC50 (TYK2 [2]) [nM],DC50 (TYK2 [3]) [nM],SMILES
> 100,> 100,< 1,CNc1cc(Nc2cccn(-c3ccc(C(=O)N4CCC(CN5CCC(c6ccc7c(c6)n(C)c(=O)n7C6CCC(=O)NC6=O)CC5)CC4)cn3)c2=O)nn2c(C(=O)N[C@@H]3C[C@@H]3F)cnc12 (some centres unmarked) [Example K408]
< 1,> 100,< 1,CNC(=O)c1cnc(Nc2ccc(CN3CCC(N(C)c4cccc5c4n(C)c(=O)n5C4CCC(=O)NC4=O)CC3)cn2)cc1Nc1cccc(-c2ncc(F)cn2)c1OC (centres unmarked) [Example K700]
–,> 100,< 1,CNc1cc(Nc2cccn(-c3ccc(C(=O)N4CCC(CN5CCC(c6ccc7c(c6)n(C)c(=O)n7C6CCC(=O)NC6=O)CC5)CC4)cn3)c2=O)nn2c(C(=O)N[C@@H]3C[C@@H]3F)cnc12 (some centres unmarked) [Example K411]
> 100,> 100,1 to 10,CNc1cc(Nc2ccc(F)c(-c3ccc(Cc4ccc(-c5ccc6c(c5)n(C)c(=O)n6C5CCC(=O)NC5=O)cc4)cn3)c2OC)nn2c(C(=O)N[C@@H]3C[C@@H]3F)cnc12 (some centres unmarked) [Example K648]
> 100,> 100,< 1,CNc1cc(Nc2cccn(-c3ccc(CN4CCN(c5ccc(-c6ccc7c(c6)n(C)c(=O)n7C6CCC(=O)NC6=O)cn5)C(=O)C4)cn3)c2=O)nn2c(C(=O)N[C@@H]3C[C@@H]3F)cnc12 (some centres unmarked) [Example K457]
> 100,> 100,< 1,CNc1cc(N2CCc3c(-c4ccc(CN5CCC6(CC5)CCN(C(=O)c5cccc(N7CCC(=O)NC7=O)c5)CC6)cn4)cccc32)nn2c(C(=O)N[C@@H]3C[C@@H]3F)cnc12 [Example K625]
> 100,> 100,1 to 10,CNc1cc(Nc2cccc(CN3CC(N4CCN(c5ccc6c(c5)n(C)c(=O)n6C5CCC(=O)NC5=O)CC4)C3)c2)nn2c(C(=O)NC3CC3)cnc12 (centres unmarked) [Example K603]
–,> 100,–,CNc1cc(Nc2cccc(-c3ccc(CN4CCN(c5ccc(-c6ccc7c(c6)n(C)c(=O)n7C6CCC(=O)NC6=O)cc5)CC4)cn3)c2)nn2c(C(=O)N[C@@H]3C[C@@H]3F)cnc12 (some centres unmarked) [Example K511]
